Data on one compound can be found in patent US11974988B2, “Neuroprotective compositions and methods of using the same” (The Board of Supervisors of Louisiana State Univer …, priority 2018, dated 2024).

A short description of data set [1]: Max. solubility (Table 1). It is filed as physicochemical.
Data set [2] in a line: Tolerability observation after i.p. dosing of SKA-41. To be noted: for tolerability: 10 mg/kg i.p., rats.
The test system of another data set is KCa channels. The following applies: cited from earlier work.
For data set [3], the system named is activity-regulated Gln/MeAIB transport (SNAT activity) in hippocampal neurons. The experiment in a line: Activity-regulated (spontaneous, 4-AP- or K+-stimulated) [14C]-MeAIB transport in primary hippocampal neurons. Type of data set: cell-based, rat. Also on record: block of transport activity: dose or concentration left out as unconfirmed.
For data set [4], the system named is rats injected with kainic acid (KA). The experiment in a line: Kainic acid (KA) seizure model, behaviour. Type of data set: in vivo, rat. The text has this:
[…]. Systemic administration of the glutamate analog, kainic acid (KA), to rats produces progressive limbic seizures culminating in status epilepticus that results in neuronal loss within limbic structures in a pattern similar to that observed in human temporal lobe epilepsy.

Data set [5] in a line: SKA-41 concentrations in plasma and brain by LC/MS after i.p. injection. The following applies: rat; for concentration at 1 h: male, intraperitoneal, 10 mg/kg i.p., n=3 rats. Type of data set: in vivo. As for the experimental part:
Twelve week-old male Sprague-Dawley rats were purchased from Charles River Laboratories (Wilmington, Mass.) and housed in microisolator cages with rodent chow and autoclaved water ad libitum. All experiments were in accordance with National Institutes of Health guidelines and approved by the University of California, Davis Institutional Animal Care and Use Committee.
SKA-41 is dissolved in Miglyol 812 neutral oil (caprylic/capric triglyceride; Trade name Neobee M5, Spectrum Chemicals, Gardena, Calif., USA) at 1 mg/mL and injected intraperitoneally at 10 mg/kg. After 1 hour, rats (n=3) are subjected to cardiac puncture under deep isoflurane anesthesia and then sacrificed before removing the brain. Blood is collected into EDTA blood sample collection tubes. Plasma is separated by centrifugation and samples stored at −80° C. pending analysis.
Commercial SPE cartridges (Hypersep C18, 100 mg, 1 mL) are purchased from Thermo Scientific (Houston, Tex., U.S.A). Before the extraction, cartridges are conditioned with acetonitrile, 2×1 mL, followed by water 2×1 mL. After loading the SPE cartridges with plasma samples, they are washed with 2×1 mL of 20% acetonitrile in water followed by elution with a 2×1 mL of acetonitrile. Elute fractions are collected and evaporated to dryness. The residues are reconstituted to solution using appropriate volume of acetonitrile and used for LC-MS analysis.
Brain samples are treated as following: 4.0 mL of acetonitrile is added to 200 mg of tissue sample and homogenized thoroughly using a T25 digital ULTRA-TURRAX® homogenizer (IKA® Works Inc., NC, USA). The homogenized samples are centrifuged for 10 min at 4000 rpm, the supernatant is separated and evaporated under a constant air flow as described above. The residues are reconstituted using appropriate volume of acetonitrile. The reconstituted material is loaded onto the preconditioned SPE cartridges it is then eluted with 2 mL of acetonitrile. Load and elute fractions are collected and evaporated to dryness. The residues are reconstituted to solution with 200 μL acetonitrile and used for LC-MS analysis. […]
Using Heated electrospray ionization source (HESI II) in positive ion mode, capillary temperature 300° C., vaporizer temperature: 250° C., spray voltage 3000 V, sheath gas pressure (N2) 30 units, auxiliary gas pressure (N2) 5 units, ion sweep gas pressure (N2) 1 unit, SKA-41 was analyzed by the selective reaction monitoring (SRM) transition of its molecular ion peak 261.0 (M+1)^+ into 175.0 and 133.0 m/z. An 8-point calibration curve spanning a concentration range from 50 nM to 10 μM range was developed for quantification.

Each structure is given as a SMILES string. Values after ≈ are worked out from the molar mass of the structure shown. “Also recorded” adds a separate entry of the source. Read-outs that look alike come from different tables or passages of the source. A value given as a limit tells only on which side of the number the result lay.

As a reminder, the solubility is how much of the substance goes into solution per volume. As to `Nc1nc(-c2ccc(OC(F)(F)F)cc2)cs1` [SKA-41, 4-(4-(Trifluoromethoxy)phenyl)thiazol-2-amine], the concentration in solution in data set [1] (solubility) came to 50 µM (≈ 13 µg/mL). For the same compound, the results for the tolerability result in data set [2] and in data set [2] (listed as SKA41) were “well tolerated with no overt toxicity or sedation; also recorded: well tolerated” and “well tolerated with no overt toxicity or sedation”, respectively. Besides, the untoward effects entry in data set [2] (10-30 mg/kg) is “did not observe any untoward effects”. Moreover, the “effect on KCa channels / KCa currents” value in the data set on KCa channels was “no effect”; in the data set on KCa channels (listed as SKA41), “no effect; also recorded: inactive”. Moreover, the “block of transport activity” value in data set [3] is given as roughly 90%. The inhibition at 10 µM in data set [3] (Rattus norvegicus, Hippocampal neuron, at 10 μM, read-out: block / inhibition of transport activity) was roughly 90%. Further, in data set [3] (Rattus norvegicus, Hippocampal neuron, hippocampal neurons in vitro, 14C-MeAIB 20 μM, read-out: IC50 to inhibit activity-regulated Gln/MeAIB transport), the IC50 was roughly 2000 nM. Moreover, the “Active (annotation beside the compound name: active vs inactive derivatives)” value in data set [3] (Table 1: SKA-41, and active and inactive derivatives) is recorded as “SKA-41 Active CAS no. 436151-95-0 (Oakwood Chemical)”. Further, in data set [3] (screens, 10 μM, GABA 2 mM), the “inhibition of spontaneous activity-regulated 14C-MeAIB transport, in words” value was “active; also recorded: blocked spontaneous transport activity; also recorded: inhibited spontaneous transport activity”. For the same compound, the “time until staring and twitching signs disappeared after KA injection” value in data set [4] (SKA-41 30 mg/kg pretreatment) is given as no more than 2 h. Moreover, the “clonic-tonic convulsions after KA” value in data set [4] (rat, in vivo) was “clonic-tonic convulsions were not observed”. In addition, in data set [5] (Sprague-Dawley, brain/plasma, ip, 10 mg/kg i.p. in Miglyol 812, 1 h, 3 male rats, read-out: brain/plasma ratio), the Kp at 1 h was roughly 7. Moreover, the concentration at 1 h in data set [5] (Sprague-Dawley, brain, read-out: brain concentration, average) was found to be 12.6 µM; in data set [5] (Sprague-Dawley, plasma, read-out: plasma concentration, average) it was 1.77 µM. Besides, the “brain penetration (brain/plasma ratio) relative to riluzole” value in data set [5] (in vivo) is “seven times higher”.
